Measured values published in ChEMBL document CHEMBL2331514, “Structure-based design and synthesis of novel pseudosaccharine derivatives as antiproliferative agents and kinase inhibitors” (Eur J Med Chem, 2013).

How the values were obtained:
[1] = Partition coefficient, log P of the compound; format: physicochemical; conditions: octanol/water
Hs-578T = assay: Cytotoxicity against human Hs578T cells assessed as growth inhibition at 10 uM after 48 hrs by SRB assay; format: functional; conditions: read-out: GI
BT-549 = assay: Cytotoxicity against human BT549 cells assessed as growth inhibition at 10 uM after 48 hrs by SRB assay; format: functional; conditions: BT-549, 48 h, read-out: GI
MDA-MB-231 = assay: Cytotoxicity against human MDA-MB-231 cells assessed as growth inhibition at 10 uM after 48 hrs by SRB assay; format: functional; conditions: MDA-MB-231, 48 h, read-out: GI
MCF7 = assay: Cytotoxicity against human MCF7 cells assessed as growth inhibition at 10 uM after 48 hrs by SRB assay; format: functional; conditions: MCF7, 48 h, read-out: GI
PC-3 = assay: Cytotoxicity against human PC3 cells assessed as growth inhibition at 10 uM after 48 hrs by SRB assay; format: functional; conditions: PC-3, 48 h, read-out: GI
UO-31 = assay: Cytotoxicity against human UO31 cells assessed as growth inhibition at 10 uM after 48 hrs by SRB assay; format: functional; conditions: UO-31, 48 h, read-out: GI
TK-10 = assay: Cytotoxicity against human TK10 cells assessed as growth inhibition at 10 uM after 48 hrs by SRB assay; format: functional; conditions: TK-10, 48 h, read-out: GI
RXF 393 = assay: Cytotoxicity against human RXF393 cells assessed as growth inhibition at 10 uM after 48 hrs by SRB assay; format: functional; conditions: RXF 393, 48 h, read-out: GI
CAKI-1 = assay: Cytotoxicity against human Caki1 cells assessed as growth inhibition at 10 uM after 48 hrs by SRB assay; format: functional; conditions: CAKI-1, 48 h, read-out: GI
Malme-3M = assay: Cytotoxicity against human MALME-3M cells assessed as growth inhibition at 10 uM after 48 hrs by SRB assay; format: functional; conditions: read-out: GI
LOX IMVI = assay: Cytotoxicity against human LOXIMVI cells assessed as growth inhibition at 10 uM after 48 hrs by SRB assay; format: functional; conditions: read-out: GI
SF-539 = assay: Cytotoxicity against human SF539 cells assessed as growth inhibition at 10 uM after 48 hrs by SRB assay; format: functional; conditions: SF-539, 48 h, read-out: GI
SF-295 = assay: Cytotoxicity against human SF295 cells assessed as growth inhibition at 10 uM after 48 hrs by SRB assay; format: functional; conditions: SF-295, 48 h, read-out: GI
KM12 = assay: Cytotoxicity against human KM12 cells assessed as growth inhibition at 10 uM after 48 hrs by SRB assay; format: functional; conditions: KM12, 48 h, read-out: GI
HCC 2998 = assay: Cytotoxicity against human HCC2998 cells assessed as growth inhibition at 10 uM after 48 hrs by SRB assay; format: functional; conditions: HCC 2998, 48 h, read-out: GI
NCI-H322M = assay: Cytotoxicity against human NCI-H322M cells assessed as growth inhibition at 10 uM after 48 hrs by SRB assay; format: functional; conditions: read-out: GI
NCI-H23 = assay: Cytotoxicity against human NCI-H23 cells assessed as growth inhibition at 10 uM after 48 hrs by SRB assay; format: functional; conditions: NCI-H23, 48 h, read-out: GI
A549 = assay: Cytotoxicity against human A549/ATCC cells assessed as growth inhibition at 10 uM after 48 hrs by SRB assay; format: functional; conditions: A549, 48 h, read-out: GI
RPMI-8226 = assay: Cytotoxicity against human RPMI8226 cells assessed as growth inhibition at 10 uM after 48 hrs by SRB assay; format: functional; conditions: RPMI-8226, 48 h, read-out: GI
HL-60(TB) = assay: Cytotoxicity against human HL-60(TB) cells assessed as growth inhibition at 10 uM after 48 hrs by SRB assay; format: functional; conditions: HL-60, 48 h, read-out: GI

Row | Compound | logP [1] | inhibition of growth at 10 µM (Hs-578T) | inhibition of growth at 10 µM (BT-549) | inhibition of growth at 10 µM (MDA-MB-231) | inhibition of growth at 10 µM (MCF7) | inhibition of growth at 10 µM (PC-3) | inhibition of growth at 10 µM (UO-31) | inhibition of growth at 10 µM (TK-10) | inhibition of growth at 10 µM (RXF 393) | inhibition of growth at 10 µM (CAKI-1) | inhibition of growth at 10 µM (Malme-3M) | inhibition of growth at 10 µM (LOX IMVI) | inhibition of growth at 10 µM (SF-539) | inhibition of growth at 10 µM (SF-295) | inhibition of growth at 10 µM (KM12) | inhibition of growth at 10 µM (HCC 2998) | inhibition of growth at 10 µM (NCI-H322M) | inhibition of growth at 10 µM (NCI-H23) | inhibition of growth at 10 µM (A549) | inhibition of growth at 10 µM (RPMI-8226) | other results
1 | O=C(Nc1ccccc1)Nc1ccc(OC2=NS(=O)(=O)c3ccccc32)cc1 | 2.89 | 13% | 12% | 63% | 17% | 11% | 13% | -7% | 5% | 25% | 21% | 49% | 21% | 32% | 58% | 20% | 5% | 6% | 22% | 36% | inhibition of growth at 10 µM (HL-60(TB)): 23%
2 | O=C(Nc1ccc(OC2=NS(=O)(=O)c3ccccc32)cc1)Nc1ccccc1Cl | 3.55 | -1% | 22% | 63% | 23% | 9% | 33% | -17% | 10% | 6% | 2% | 15% | 6% | 8% | 10% | -5% | 2% | 8% | 7% | 7% | inhibition of growth at 10 µM (HL-60(TB)): 25%
3 | COc1ccc(NC(=O)Nc2ccc(NC3=NS(=O)(=O)c4ccccc43)cc2)cc1 | 2.99 | -4% | 15% | -13% | 13% | -5% | 1% | -4% | -2% | -1% | 6% | 1% | 14% | 18% | -1% | -3% | 0% | 8% | -10% | 4% | inhibition of growth at 10 µM (HL-60(TB)): 10%
